Calls of active or inactive are those of the source. The calls are words filed in the database; no cut-off is given here.

This is an account of results in ChEMBL document CHEMBL1124642 (1989).

The species named for one assay is Cavia porcellus. As to the kind of experiment: Effective dose for guinea pig ileum contractions. The class given is functional. Particulars: for EC50: read-out: ED50 (the source's name).
Assay [1] has as its target Muscarinic acetylcholine receptor (Homo sapiens) (UniProt P20309+P08173+P11229+P08172+P08912). As to the kind of experiment: Tested in vitro for agonistic effect on Muscarinic acetylcholine receptor of guinea pig ileum; IA = Inactive. The class given is functional, tissue-based. The conditions noted are these: Cavia porcellus, target entry is the homologue from another species.

For `CCN1C(=O)OCC1Cc1c[nH]cn1` (stereo not given), the EC50 in the assay filed under Cavia porcellus amounted to 180 µM.
Take `CCN1C(=O)OCC1Cc1cn(Cc2ccccc2)cn1` (stereo not given): the ED50 result in the assay listed under Cavia porcellus is “inactive”.
`CCN1C(=O)OCC1Cc1cn(C)cn1` (stereo not given): the EC50 in the assay filed under Cavia porcellus came to 14 µM.
Take `CCN1C(=O)OCC1Cc1cn(Cc2ccccc2)c[n+]1C` (stereo not given): the ED50 entry in assay [1] is “inactive”.
On to `CCN1C(=O)OCC1Cc1cncn1C` (stereo not given), for which, in the assay filed under Cavia porcellus, the EC50 is 1 µM.
